# Measurements as given in article PMC9026967, “Discovery of a Novel Inhibitor Structure of Mycobacterium tuberculosis Isocitrate Lyase” (Molecules, 2022).
# Like-named read-outs stand apart in the source and are kept apart here.
# Experiments:
# [1] = target: T1, M. tuberculosis isocitrate lyase (MtICL) (Mycobacterium tuberculosis, UniProt P9WKK7); assay: biochemical
# T1 construct: gene icl
# T1 sequence (P9WKK7 1-428): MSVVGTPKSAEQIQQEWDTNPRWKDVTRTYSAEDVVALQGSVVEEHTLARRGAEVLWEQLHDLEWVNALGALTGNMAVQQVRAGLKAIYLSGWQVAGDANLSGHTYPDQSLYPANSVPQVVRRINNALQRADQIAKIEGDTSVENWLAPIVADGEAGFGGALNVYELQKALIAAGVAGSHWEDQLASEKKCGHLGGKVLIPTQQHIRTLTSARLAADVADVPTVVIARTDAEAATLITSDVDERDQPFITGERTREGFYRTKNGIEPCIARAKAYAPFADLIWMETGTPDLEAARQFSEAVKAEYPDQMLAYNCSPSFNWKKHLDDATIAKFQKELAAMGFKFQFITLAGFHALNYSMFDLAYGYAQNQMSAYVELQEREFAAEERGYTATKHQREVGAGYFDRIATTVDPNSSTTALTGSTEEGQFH
# [2] = target: T1, M. tuberculosis isocitrate lyase (MtICL); assay: biochemical; remark: listed apart in the source
SMILES,IC50 [1] [µM],IC50 [2] [µM]
"O=c1ccc2ccc(O)c(O)c2o1 [MOL005118, Daphnetin]",24.4,
"C=C(CC(=O)O)C(=O)O [IA, itaconic acid]",,38.6 ± 0.8
"O=C(O)C(=O)CBr [3-BP, 3-bromopyruvic acid]",,63.6 ± 2.8
